SMILES strings stand for the structures.

Assay [1] is described as follows: Growth inhibition of PI3Kdelta-overexpressing human Pfeiffer cells incubated for 72 hrs by MTT assay. The format is functional. (Tetrazolium assays rely on reduction of a dye to a coloured formazan, in cell work by metabolically active cells.)
For another assay, the system named is Pfeiffer. The assay can be described thus: Antitumor activity against human Pfeiffer cells xenografted in male nude mouse assessed as tumor growth inhibition at 30 mg/kg/day, po administered for 14 days relative to control. It is filed as functional. The settings on record: 336 h, time 14 day, read-out: TGI. Background: Xenograft models place foreign cells or tissue in a host animal.

The next assay has as its system Raji. The assay can be described thus: Growth inhibition of human Raji cells incubated for 72 hrs by MTT assay. The format is functional.
For assay [2], the target named is T1, Phosphatidylinositol 4,5-bisphosphate 3-kinase catalytic subunit delta isoform (Homo sapiens, UniProt O00329).
T1 sequence (O00329 whole entry): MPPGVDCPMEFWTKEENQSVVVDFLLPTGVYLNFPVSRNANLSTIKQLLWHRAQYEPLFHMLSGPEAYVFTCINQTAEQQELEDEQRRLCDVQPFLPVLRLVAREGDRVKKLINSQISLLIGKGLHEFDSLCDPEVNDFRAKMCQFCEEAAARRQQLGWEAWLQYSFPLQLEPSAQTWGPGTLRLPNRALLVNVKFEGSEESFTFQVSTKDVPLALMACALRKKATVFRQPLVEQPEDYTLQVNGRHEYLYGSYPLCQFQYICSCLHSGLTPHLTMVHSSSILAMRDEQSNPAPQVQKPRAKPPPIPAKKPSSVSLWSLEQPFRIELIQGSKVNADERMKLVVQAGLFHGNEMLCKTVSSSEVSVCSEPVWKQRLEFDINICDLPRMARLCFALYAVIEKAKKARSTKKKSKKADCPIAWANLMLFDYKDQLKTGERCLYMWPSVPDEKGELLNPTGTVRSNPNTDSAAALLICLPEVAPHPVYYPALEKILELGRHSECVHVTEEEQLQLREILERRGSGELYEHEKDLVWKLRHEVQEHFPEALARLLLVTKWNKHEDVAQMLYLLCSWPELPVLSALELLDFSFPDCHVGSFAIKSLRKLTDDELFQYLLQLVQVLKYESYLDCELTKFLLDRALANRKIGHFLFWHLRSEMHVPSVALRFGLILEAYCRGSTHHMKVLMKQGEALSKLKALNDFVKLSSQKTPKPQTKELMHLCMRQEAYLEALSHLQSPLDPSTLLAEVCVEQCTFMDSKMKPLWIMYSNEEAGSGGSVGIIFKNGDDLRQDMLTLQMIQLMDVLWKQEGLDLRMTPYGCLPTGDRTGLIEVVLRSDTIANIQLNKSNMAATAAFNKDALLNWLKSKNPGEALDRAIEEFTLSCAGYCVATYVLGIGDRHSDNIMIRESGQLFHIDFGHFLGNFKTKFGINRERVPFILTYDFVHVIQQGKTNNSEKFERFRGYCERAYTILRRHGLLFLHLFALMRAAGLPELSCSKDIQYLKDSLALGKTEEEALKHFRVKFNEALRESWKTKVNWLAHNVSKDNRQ
The assay can be described thus: Covalent inhibition of PI3Kdelta (unknown origin) using PIP2:3PS as substrate assessed as inhibition constant incubated upto 180 mins in presence of ATP by ADP-Glo reagent based assay. In general terms: In ADP-Glo the light output rises with the ADP produced.

The target in assay [3] is Phosphatidylinositol 4,5-bisphosphate 3-kinase catalytic subunit alpha isoform (Homo sapiens, UniProt P42336). The assay can be described thus: Inhibition of recombinant PI3Kalpha (unknown origin) using PIP2:3PS as substrate preincubated for 20 mins followed by ATP addition and measured after 1 hrs by ADP-Glo reagent based assay.
Sequence of Phosphatidylinositol 4,5-bisphosphate 3-kinase catalytic subunit alpha isoform (P42336 whole entry, canonical isoform): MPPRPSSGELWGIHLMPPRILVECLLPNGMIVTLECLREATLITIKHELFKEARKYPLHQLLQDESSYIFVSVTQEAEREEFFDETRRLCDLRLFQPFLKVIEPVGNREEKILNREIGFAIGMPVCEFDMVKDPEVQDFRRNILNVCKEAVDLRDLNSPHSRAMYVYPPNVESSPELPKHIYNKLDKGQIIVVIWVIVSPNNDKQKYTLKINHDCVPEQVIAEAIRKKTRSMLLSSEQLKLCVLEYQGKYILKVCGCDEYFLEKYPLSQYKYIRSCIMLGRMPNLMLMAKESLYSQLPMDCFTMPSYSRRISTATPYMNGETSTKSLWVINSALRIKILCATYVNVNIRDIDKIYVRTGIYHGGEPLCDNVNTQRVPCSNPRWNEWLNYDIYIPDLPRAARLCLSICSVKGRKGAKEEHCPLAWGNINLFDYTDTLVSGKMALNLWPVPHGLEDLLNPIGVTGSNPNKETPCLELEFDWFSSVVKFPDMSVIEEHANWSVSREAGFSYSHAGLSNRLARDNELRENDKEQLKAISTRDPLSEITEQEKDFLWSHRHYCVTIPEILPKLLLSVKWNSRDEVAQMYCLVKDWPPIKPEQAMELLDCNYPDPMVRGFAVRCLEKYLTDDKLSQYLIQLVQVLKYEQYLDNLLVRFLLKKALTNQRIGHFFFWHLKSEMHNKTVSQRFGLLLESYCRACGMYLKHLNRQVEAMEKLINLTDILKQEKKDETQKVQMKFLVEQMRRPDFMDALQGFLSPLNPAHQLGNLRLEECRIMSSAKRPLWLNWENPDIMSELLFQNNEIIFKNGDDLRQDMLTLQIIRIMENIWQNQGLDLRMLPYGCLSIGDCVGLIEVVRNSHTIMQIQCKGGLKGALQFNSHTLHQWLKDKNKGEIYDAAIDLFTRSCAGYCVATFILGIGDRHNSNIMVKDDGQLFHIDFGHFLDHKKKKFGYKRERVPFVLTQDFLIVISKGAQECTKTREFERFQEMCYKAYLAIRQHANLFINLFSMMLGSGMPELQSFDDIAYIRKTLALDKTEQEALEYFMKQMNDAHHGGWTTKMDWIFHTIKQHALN

The term GI50 denotes the concentration giving 50% growth inhibition. Read a low GI50 as greater sensitivity of the cells. For orientation: IC50 means the point on the concentration scale where inhibition reaches its midpoint. With `COc1ncc(-c2ccc3ncnc(N[C@H]4CCN(C(=O)C5CCOCC5)C4)c3n2)cc1C(=O)Oc1ccccc1`, the 50% growth inhibitory concentration (GI50) in assay [1] was found to be 102 nM; in the assay on Raji, 5390 nM. Also, in the assay with Pfeiffer, the inhibition in vivo at 30 mg/kg/day turned out to be 61%. Further, in assay [2], the Ki turned out to be 1.85 nM. The IC50 in assay [3] was determined as 610 nM.

The values above are taken from ChEMBL document CHEMBL6127139, “Lysine-Targeted Covalent Inhibitors of PI3Kδ Synthesis and Screening by In Situ Interaction Upgradation” (J Med Chem, 2024).
